Holding throughout (type): cell-based
In assay [1] the test system is Scopulariopsis brevicaulis. Nature of the assay: agar incorporation test, growth inhibition of dermatophytes. Here is the method: (§1) The activity of the compound according to the invention as agent for inhibiting the growth of various types of yeasts was studied in an agar incorporation test. The nutrient medium used was Sabouraud agar. Several samples of each of the yeast types below, which were isolated directly from diseased patients, were tested: • a) Candida tropicalis • b) Candida albicans • c) Candida glabrata • d) Candida parapsilosis.
(§2) The cultures were supplemented with bis(N-cyclohexyldiazeniumdioxy)copper in such an amount that an end concentration of 25 or 50 ppm was obtained. The cultures were subsequently incubated at 30° C., and the growth of the isolates was assessed after an incubation period of 2 to 5 days.
(§3) The activity of the compound according to the invention for inhibiting the growth of the dermatophyte cultures below was studied in an agar incorporation test as described in Example 1. The active ingredient concentration in the samples amounted to 2.5, 5, 10, 15, 20, 25, 30, 35, 40, 45 and 50 ppm. The isolates were studied after an incubation period of 7, 14 and 21 days, and their growth was determined.

Assay [2] relates to Trichlorophyton rubrum. The assay is described as above. Here is the method: as §1, §2, §3
For assay [3], the system named is Microsporum canis. The description is as above. Here is the method:
as §1, §2, §3

In assay [4] the test system is Epidermophyton floccosum. The description is as above. Here is the method:
as §1, §2, §3

Assay [5] concerns Trichophyton mentagrophytes. Described as above. Here is the method:
as §1, §2, §3

In assay [6] the test system is Candida albicans. Nature of the assay: agar incorporation test, growth inhibition of yeasts. The settings on record: Sabouraud agar, 30° C., patient isolates. Here is the method: as §1, §2
The test system of assay [7] is Candida parapsilosis. The assay is described as above. The following applies: Sabouraud agar, 30° C., patient isolates. Here is the method:
as §1, §2

Assay [8] concerns Candida glabrata. Described as above. The settings on record: Sabouraud agar, 30° C., patient isolates. Here is the method: as §1, §2
The subject of assay [9] is Candida tropicalis. The assay is described as above. The following applies: Sabouraud agar, 30° C., patient isolates. Here is the method:
as §1, §2

Setting [10] is: active ingredient 25 ppm, incubation 2 and 5 days.
Setting [11] is: active ingredient 50 ppm, incubation 2 to 5 days.

With `O=NN([O-])C1CCCCC1.O=NN([O-])C1CCCCC1.[Cu+2]` [bis(N-cyclohexyldiazeniumdioxy)copper], the “Effective active ingredient concentration” value is given as 25 ppm in assay [1] (incubation period 7 days); 35 ppm in assay [1] (incubation period 14 days); 40 ppm in assay [1] (incubation period 21 days); 15 ppm in assay [2] (incubation period 7 days); 15 ppm in assay [2] (incubation period 14 days); 15 ppm in assay [2] (incubation period 21 days). In addition, the “Effective active ingredient concentration” value in assay [3] (incubation period 7 days) is “≦10 ppm”; in assay [3] (incubation period 14 days), 15 ppm; in [3] (incubation period 21 days) it was 15 ppm; in [4] (incubation period 7 days), 15 ppm; in assay [4] (incubation period 14 days), 20 ppm; in assay [4] (incubation period 21 days), 20 ppm. Besides, the “Effective active ingredient concentration” value in [5] (incubation period 7 days), in [5] (incubation period 14 days) and in assay [5] (incubation period 21 days) was 30 ppm each time. For the same compound, the “growth of the isolates” value is listed as “still growing” in [6] (setting [10]); “no growth” in assay [6] (setting [11]); “still growing” in assay [7] (setting [10]); “no growth” in [7] (setting [11]); “still growing” in assay [8] (setting [10]); “no growth” in assay [8] (setting [11]). In addition, the “growth of the isolates” value is on record as “still growing” in [9] (setting [10]) and “no growth” in assay [9] (setting [11]).

Values taken from patent US20050070509A1, “Antimycotic agent” (priority 2001, published 2005).
